The test system of test [1] is LNCaP cells. Briefly: Confocal microscopy of VPS13A vesicle association/fusion with LAMP2-positive lysosomes. It counts as cell-based. The method, then:
FIG. […] The cells were then fixed and stained for LAMP2 and VPS13A. Using the 100× lens, the number of lysosomes in 10 fields of view were counted. Then the number of VPS13A fusion events was counted in the same field of view. A fusion event was classed as a VPS13A vesicle touching or integrated into a LAMP2 positive lysosome. *Data are shown normalised to the number of lysosomes in each field of view. P-values were calculated using a Mann-Whitney 2-tailed t-test.
Cells were fixed and stained as before using anti-VPS13A antibody (1:50, Human Protein Atlas) and LAMP2 antibody (1:500, BD Biosciences) (8). Cells were imaged using Alexafluor 594 and 488 secondary antibodies (Molecular Probes) and mounted with DAPI. All images were obtained using a Nikon Eclipse confocal microscope using a 100× objective. […]

Test [2] relates to VPS13A. Briefly: VPS13A protein expression in LNCaP cells after calcium modifiers (SDS-PAGE / western blot). In kind it is cell-based. The note with it: LNCaP cells treated for 8 hours with 10 μM; lysates probed for VPS13A and tubulin. The method, then:
Non-targeting control LNCaP cells or siVPS13A cells were treated for 8 hours with 10 μM BAPTA (B), calcimycin (Cal) or control (C). Protein lysates were separated by SDS-PAGE and probed for VPS13A and tubulin.
Cells were fixed and stained as before using anti-VPS13A antibody (1:50, Human Protein Atlas) and LAMP2 antibody (1:500, BD Biosciences) (8). Cells were imaged using Alexafluor 594 and 488 secondary antibodies (Molecular Probes) and mounted with DAPI. All images were obtained using a Nikon Eclipse confocal microscope using a 100× objective. For calcium modifying experiments, LNCaP cells were grown as before to ˜50% confluence before being treated for 8 hours with 10 μM of the calcium ionophore, calcimycin (Invitrogen) or 10 μM of the calcium chelating agent 1,2-bis(o-aminophenoxy)ethane-N,N,N′,N′-tetraacetic acid (BAPTA) (Invitrogen) (Whitaker et al., 2007).
Protein lysates were produced as described (8) and separated by SDS-PAGE before blotting for VPS13A (1:1000, Human Protein Atlas), FAK (1:1000, Cell Signaling Technology), pTyr397-FAK (1:1000, Cell Signaling Technology) or tubulin (1:2000, Abcam).
In general terms: In western blotting, separated proteins are transferred to a membrane and probed.

On to `CNc1ccc2oc(C[C@H]3O[C@@]4(CC[C@H]3C)O[C@H]([C@H](C)C(=O)c3ccc[nH]3)[C@H](C)C[C@H]4C)nc2c1C(=O)O` [calcimycin], for which, in test [1] (LNCaP cells, LAMP2 and VPS13A staining, p=0.0004), the “number of VPS13A vesicles that associated with lysosomes (fusion events, normalised to number of lysosomes)” value is reported as “highly significant decrease”. Also, in test [2], the “intracellular levels of VPS13A (VPS13A protein expression)” value was “increase in the intracellular levels of VPS13A”.

For `O=C(O)CN(CC(=O)O)c1ccccc1OCCOc1ccccc1N(CC(=O)O)CC(=O)O` [BAPTA, 1,2-bis(o-aminophenoxy)ethane-N,N,N′,N′-tetraacetic acid], the “intracellular levels of VPS13A (VPS13A protein expression)” value in test [2] is “no significant change in VPS13A expression”.

Take `CO/C1=C\C(C)=C\[C@@H](C)[C@@H](O)[C@@H](C)C/C(C)=C/C=C/[C@H](OC)[C@@H]([C@@H](C)[C@@H](O)[C@H](C)[C@@]2(O)C[C@@H](O)[C@H](C)[C@@H](C(C)C)O2)OC1=O` [bafilomycin]: in test [1] (cells treated with bafilomycin, LAMP2 staining), the “VPS13A vesicle integration into the lysosome membrane” value is recorded as “VPS13A vesicles are seen integrated into the lysosome membrane”.

Values taken from patent publication US20160018400A1, “DIAGNOSTIC AND PROGNOSTIC BIOMARKERS FOR PROSTATE CANCER AND OTHER DISORDERS” (CANCER RESEARCH TECHNOLOGY LIMITED, priority 2013, published 2016).
